Literature values in US20080254084A1, “Antimicrobial Preparations Having a Content of Octenidine Dihydrochloride Encapsulated in Liposomes” (Air Liquide Sante (International), priority 2005, published 2008).
Structures can show the parent of a compound that is named as a salt.

Tests used:
[1] = system: a large number of microbes; details: concentrations of >0.001% octenidine dihydrochloride, within 1 min
[2] = octenidine dihydrochloride concentration

Q: What does the source list for CCCCCCCCNc1cc[n+](CCCCCCCCCC[n+]2ccc(NCCCCCCCC)cc2)cc1 [octenidine dihydrochloride]?
A: reduction factor [1]: 5 decadic units; concentration at which cytotoxicity is present [2]: > 0.001 % by weight
